From ChEMBL document CHEMBL2062475, “Langkolide, a 32-membered macrolactone antibiotic produced by Streptomyces sp. Acta 3062” (J Nat Prod, 2012)
Active and inactive are the calls of the source. The rule behind the calls is not given here.

Tests used:
Bacillus subtilis = test: Antibacterial activity against Bacillus subtilis DSM 347 after 14 to 16 hrs by resazurin reduction assay; format: functional, organism-based
Mammaliicoccus lentus = test: Antibacterial activity against Staphylococcus lentus DSM 6672 after 14 to 16 hrs by resazurin reduction assay; format: functional, organism-based
Candida albicans = test: Antifungal activity against Candida albicans DSM 1386 after 14 to 16 hrs by resazurin reduction assay; format: functional, organism-based
HepG2 = test: Cytotoxicity against human HepG2 cells after 24 hrs by CellTiter-Blue assay; format: functional, cell-based; settings: HepG2, 24 h
NIH3T3 = test: Cytotoxicity against mouse NIH/3T3 cells after 24 hrs by CellTiter-Blue assay; format: functional, cell-based; settings: NIH3T3, 24 h
Xanthomonas campestris = test: Antibacterial activity against Xanthomonas campestris DSM 2405 after 14 to 16 hrs by resazurin reduction assay; format: functional, organism-based
[1] = molecular target: 3',5'-cyclic-AMP phosphodiesterase 4B (Homo sapiens, UniProt Q07343); test: Inhibition of human recombinant PDE4B2 by HTS cAMP assay
3',5'-cyclic-AMP phosphodiesterase 4B, sequence (Q07343 whole entry): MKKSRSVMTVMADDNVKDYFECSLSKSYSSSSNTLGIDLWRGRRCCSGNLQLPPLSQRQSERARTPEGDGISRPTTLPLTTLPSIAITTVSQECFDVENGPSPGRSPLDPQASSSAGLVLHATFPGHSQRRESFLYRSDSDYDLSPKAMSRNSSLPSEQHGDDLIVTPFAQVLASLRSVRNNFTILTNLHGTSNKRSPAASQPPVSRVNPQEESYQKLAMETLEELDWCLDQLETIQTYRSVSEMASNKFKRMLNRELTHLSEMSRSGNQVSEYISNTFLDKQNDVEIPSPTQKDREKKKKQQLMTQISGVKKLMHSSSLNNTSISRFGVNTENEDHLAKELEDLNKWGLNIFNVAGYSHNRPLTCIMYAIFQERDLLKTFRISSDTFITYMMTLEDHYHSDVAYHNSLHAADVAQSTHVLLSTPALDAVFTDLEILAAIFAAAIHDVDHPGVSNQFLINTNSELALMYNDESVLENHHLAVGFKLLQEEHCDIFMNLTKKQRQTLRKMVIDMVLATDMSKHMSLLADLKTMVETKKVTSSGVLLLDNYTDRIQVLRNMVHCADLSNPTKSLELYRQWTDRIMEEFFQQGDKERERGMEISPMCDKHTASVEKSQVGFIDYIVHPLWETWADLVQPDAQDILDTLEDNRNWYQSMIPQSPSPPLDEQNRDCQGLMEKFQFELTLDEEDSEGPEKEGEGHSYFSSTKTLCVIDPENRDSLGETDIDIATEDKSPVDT

[2] = molecular target: Glycogen synthase kinase-3 beta (Homo sapiens, UniProt P49841); test: Inhibition of recombinant GSK3beta by KinaseGlo assay
Glycogen synthase kinase-3 beta, sequence (P49841 whole entry): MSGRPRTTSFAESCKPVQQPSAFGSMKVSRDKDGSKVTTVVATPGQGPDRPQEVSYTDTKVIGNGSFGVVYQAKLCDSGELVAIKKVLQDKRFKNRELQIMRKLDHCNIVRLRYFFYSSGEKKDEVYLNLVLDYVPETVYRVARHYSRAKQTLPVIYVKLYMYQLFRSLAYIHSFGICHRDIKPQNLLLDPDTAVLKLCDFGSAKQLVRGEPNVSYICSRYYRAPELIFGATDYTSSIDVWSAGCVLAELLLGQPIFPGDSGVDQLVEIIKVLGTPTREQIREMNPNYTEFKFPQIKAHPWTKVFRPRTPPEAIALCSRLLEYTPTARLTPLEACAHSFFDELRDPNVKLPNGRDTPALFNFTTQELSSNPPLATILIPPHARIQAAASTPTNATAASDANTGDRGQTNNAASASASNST

Nakaseomyces glabratus = test: Antifungal activity against Candida glabrata DSM 6425 after 14 to 16 hrs by resazurin reduction assay; format: functional, organism-based
HT-29 = test: Cytotoxicity against human HT-29 cells after 24 hrs by CellTiter-Blue assay; format: functional, cell-based; settings: HT-29, 24 h
Cutibacterium acnes = test: Antibacterial activity against Propionibacterium acnes DSM 1897 after 48 hrs by resazurin reduction assay; format: functional, organism-based

CC(=O)O[C@H]1C[C@@H](O)C[C@H](O)C[C@@H](O)[C@@H]2O[C@H]2[C@@H](C)[C@@H]([C@@H](C)[C@@H](O)[C@H](C)[C@@H](O)[C@@H](C)[C@@H](C)O[C@H]2CC[C@H](O[C@@H]3CC[C@@H](OC(=O)[C@H](C)[C@@H](O)/C(C)=C/c4ccc5c(c4)C(=O)C=CC5=O)[C@H](C)O3)[C@H](C)O2)OC(=O)/C=C/[C@H](C)[C@@H](O)C[C@H](O)/C=C/CC[C@@H](C)[C@@H](O)[C@H](O)[C@@]2(O)O[C@@H](C1)C[C@@H](O)[C@@H]2O [LANGKOLIDE]
Activity (Bacillus subtilis): inactive
Activity (Mammaliicoccus lentus): inactive
IC50 (Candida albicans): 1.23 µM
IC50 (HepG2): 2.41 µM
IC50 (NIH3T3): 0.49 µM
Activity (Xanthomonas campestris): inactive
IC50 [1]: 0.48 µM
IC50 [2]: 2.17 µM
IC50 (Nakaseomyces glabratus): 1 µM
IC50 (HT-29): 1.38 µM
Activity (Cutibacterium acnes): inactive
